Experimental data reported in patent US7253177B2, “Synthesis and antimalarial activity of pyrrolo[3,2-f]quinazoline-1,3-diamine derivatives” (United States of America as Represented by the Secretary of …, priority 2004, dated 2007).
≈ marks a conversion by molar mass, not a printed value. Read-outs that look alike come from different tables or passages of the source.

Assays:
[1] = system: Plasmodium falciparum D-6 clone (CDC Sierra Leone I); test: In vitro antimalarial study, [3H]hypoxanthine uptake, D-6 clone; format: cell-based; conditions: for IC50 D-6: P. falciparum D-6 clone; for IC50: Plasmodium falciparum, read-out: IC50 D-6
Protocol: (§1) B. Antimalarial Activities: (a). In Vitro Antimalarial Studies. The in vitro assays were conducted by using a modification of the semiautomated microdilution technique of Desjardins et al and Chulay et al.. Four P. falciparum malaria parasite clones, from CDC Indochina III (W-2), CDC Sierra Leone I (D-6), Southeast Asia Isolates (TM91C235) and RCS (Isolates from Brazil) were utilized in susceptibility testing. They were derived by direct visualization and micromanipulation from patient isolates. The W-2 clone is susceptible to mefloquine but resistant to chloroquine, sulfadoxine, pyrimethamine, and quinine, whereas the D-6 clone is naturally resistant to mefloquine but susceptible to chloroquine, sulfadoxine, pyrimethamine and quinine. Test compounds were initially dissolved in DMSO and diluted 400 fold in RPMI 1640 culture medium supplemented with 25 mM Hepes, 32 mM NaHCO3 and 10% Albumax I (Gibco BRL, Grand Island, N.Y.). These solutions were subsequently serially diluted two-fold with a Biomek 1000 (Beckman, Fullerton, Calif.) over 11 different concentrations. The parasites were exposed to serial dilutions of each compound for 48 hrs and incubated at 37° C. with 5% O2, 5% CO2 and 90% N2 prior to the addition of [^3H]hypoxanthine. After a further incubation of 18 hrs, parasite DNA was harvested from each microtiter well using Packard Filtermate 196 Harvester (Meriden, Conn.) onto glass filters. Uptake of [^3H]hypoxanthine was measured with a Packard Topcount Scintillation. Concentration-response data were analyzed by a non-linear regression logistic dose response model and the IC50 values (50% inhibitory concentrations) for each compound were calculated. (Table 3). (b). In Vivo Antimalarial Studies against P. berghei in mice: The in vivo efficacy of the artelinic acid analogs were determined in a modified Thompson test. This test measures the survivability of mice and parasitemia clearance following administration of drug on days 3-5 post infection. In brief, 5×10^6 P. berghei-infected erythrocytes (KBG-173 strain) were inoculated intraperitoneally to female mice that weighed 24-30 g. By day three post-infection, parasitemia ranged from 1.0-3.7%. Each drug, dissolved in 5% sodium bicarbonate, was administered PO twice daily from day 3-5 post-infection. Total doses for each drug ranged from 1.5-384 mg/kg with 8 mice included in each dosage group. The percent suppression of parasitemia in the treated mice compared to the untreated controls was determined for each test compound; the SD-50 (fifty percent suppression dose) and SD-90 were determined from a non-linear regression logistic dose response fit at day 6 parasitemia data. Survival of mice to day 60 post-infection was considered a cure (C). Compounds were considered active (A) when the survival time of the treated mice was greater than twice the control mice, i.e., 12-14 day (Table 4-5). (c). Sporozoite Induced Test Each compound is ground with a mortar & pestle and suspended in 0.5% hydroxyethylcellulose—0.1% Tween 80 for compounds to be administered PO and those given SC are suspended in peanut oil. Each compound is prepared at 3 different dose levels as requested by WRAIR. Compounds are administered either PO or SC to mice once 4 hr before inoculation of sporozoites. Four-week-old male CD-1 mice, purchased from Charles River and weighing 16-17 g, are placed 5 per cage and allowed to acclimate for 4 days before being treated and then inoculated with sporozoites. They are fed food and water ad-lib and maintained at 76° F. with 12 hr light and 12 hr darkness. The cages and water bottles are changed biweekly. The mice are weighed on Days 0, 3 and 6 then biweekly when blood films are taken. Plasmodium yoelii (17×) is used to infect mice that will be used to infect the mosquitoes. Mice are given a single dose of test compound 4 hr before being inoculated intraperitoneally with 2.5×10^5 sporozoites of Plasmodium yoelii on Day 0. […]

[2] = system: Plasmodium falciparum TM91C235 (Southeast Asia Isolates); test: In vitro antimalarial study, [3H]hypoxanthine uptake, TM91C235 clone; format: cell-based; conditions: for IC50 TM91C235: P. falciparum TM91C235 clone; for IC50: Plasmodium falciparum, read-out: IC50 TM91C235
Protocol: as §1

[3] = system: Plasmodium berghei (KBG-173 strain); format: in vivo; conditions: mice, oral
Protocol: as §1

[4] = system: Plasmodium falciparum RCS (Isolates from Brazil); test: In vitro antimalarial study, [3H]hypoxanthine uptake, RCS clone; format: cell-based; conditions: P. falciparum RCS clone; for IC50: Plasmodium falciparum
Protocol: as §1

[5] = system: Plasmodium falciparum W-2 clone (CDC Indochina III); test: In vitro antimalarial study, [3H]hypoxanthine uptake, W-2 clone; format: cell-based; conditions: for IC50 W-2: P. falciparum W-2 clone; for IC50: Plasmodium falciparum, read-out: IC50 W-2
Protocol: as §1

Plasmodium berghei = test: Antimalarial activity against Plasmodium berghei in mice by subcutaneous injection; format: in vivo
[6] = system: Plasmodium yoelii (17x) sporozoites; test: Sporozoite induced test in mice; format: in vivo; conditions: P. yoelii, mice, oral
Protocol: as §1, with “mosquitoes. […] Whole body weights” for “mosquitoes. Mice”, “are taken” for “are given a single dose of test compound 4 hr before being inoculated intraperitoneally with 2.5×10^5 sporozoites of Plasmodium yoelii”, “Day 0 and Day 6 then twice a week for 31 days. A blood film is taken on Day 5 and then twice a week for 31 days. Mice loosing >20% of their body weight will be sacrificed.” for “Day 0.”

SMILES: CCOC(=O)Nc1nc(N(C(=O)OCC)C(=O)OCC)c2c(ccc3c2ccn3Cc2ccccc2C(F)(F)F)n1 [Compound 2c]
- IC50 D-6 [1]: >250 ng/mL
- IC50 TM91C235 [2]: >250 ng/mL
- # Mice Alive Day 30/Total ([3]; 80-1.25 mg/kg/day): 5/5
- # Mice Dead/Day Died ([3]; 80-1.25 mg/kg/day): None
- IC50 RCS [4]: >250 ng/mL
- IC50 W-2 [5]: >250 ng/mL

SMILES: CC(C)(C)OC(=O)Nc1nc(N(C(=O)OC(C)(C)C)C(=O)OC(C)(C)C)c2c(ccc3c2ccn3Cc2ccccc2C(F)(F)F)n1 [Compound 2i]
- IC50 D-6 [1]: 1.9252 ng/mL (≈ 2.93 nM)
- IC50 TM91C235 [2]: 97.708 ng/mL (≈ 149 nM)
- # Mice Alive Day 31/Total (Plasmodium berghei; 40-2.5 mg/kg/day): 7/7
- # Mice Dead/Day Died (Plasmodium berghei; 40-2.5 mg/kg/day): none
- IC50 RCS [4]: 26.380 ng/mL (≈ 40.1 nM)
- IC50 W-2 [5]: 33.569 ng/mL (≈ 51 nM)

SMILES: CC(C)(C)OC(=O)N(C(=O)OC(C)(C)C)c1nc(N(C(=O)OC(C)(C)C)C(=O)OC(C)(C)C)c2c(ccc3c2ccn3Cc2ccccc2C(F)(F)F)n1 [Compound 2j]
- # Mice Alive Day 31/Total (Plasmodium berghei; 2.5 mg/kg/day): 2/7
- # Mice Alive Day 31/Total (Plasmodium berghei; 10 mg/kg/day): 6/7
- # Mice Dead/Day Died (Plasmodium berghei; 10 mg/kg/day): 1/24
- # Mice Alive Day 31/Total (Plasmodium berghei; 20 mg/kg/day): 7/7
- # Mice Dead/Day Died (Plasmodium berghei; 20 mg/kg/day): none
- # Mice Alive Day 31/Total (Plasmodium berghei; 40 mg/kg/day): 5/7
- # Mice Dead/Day Died (Plasmodium berghei; 40 mg/kg/day): 2/19

SMILES: CC(=O)Nc1nc(N)nc2ccc3c(ccn3Cc3ccccc3C(F)(F)F)c12 [Compound 3a]
- IC50 [1]: 0.0097 ng/mL (≈ 0.0243 nM)
- IC50 [2]: 0.0206 ng/mL (≈ 0.0516 nM)
- IC50 [4]: 0.0096 ng/mL (≈ 0.024 nM)
- IC50 [5]: 0.0186 ng/mL (≈ 0.0466 nM)

SMILES: CC(=O)N(C(C)=O)c1nc(N)nc2ccc3c(ccn3Cc3ccccc3C(F)(F)F)c12 [Compound 3b]
- IC50 [1]: 0.0101 ng/mL (≈ 0.0229 nM)
- IC50 [2]: 0.0212 ng/mL (≈ 0.048 nM)
- IC50 [4]: 0.0116 ng/mL (≈ 0.0263 nM)
- IC50 [5]: 0.0183 ng/mL (≈ 0.0415 nM)

SMILES: CC(=O)Nc1nc(N(C(C)=O)C(C)=O)c2c(ccc3c2ccn3Cc2ccccc2C(F)(F)F)n1 [Compound 3d]
- # Mice Dead/Day Died ([3]; 10-0.625 mg/kg/day): death in each group
- # Mice Alive Day 30/Total ([3]; 220-40 mg/kg/day): 5/5
- # Mice Dead/Day Died ([3]; 220-40 mg/kg/day): None

SMILES: Nc1nc(N2C(=O)CCC2=O)nc2ccc3c(ccn3Cc3ccccc3C(F)(F)F)c12 [Compound 3f, 1-Amino-3-(1-pyrrolidine-2,5-dione)-7-(2-trifluoromethyl-benzyl)-7H-pyrrolo[3,2-f]quinazoline]
- IC50 [1]: < 0.488 ng/mL
- IC50 [5]: < 0.488 ng/mL

SMILES: O=C1CCC(=O)N1c1nc(N2C(=O)CCC2=O)c2c(ccc3c2ccn3Cc2ccccc2C(F)(F)F)n1 [Compound 3g, 1,3-Bis-(1-pyrrolidine-2,5-dione)-7-(2-trifluoromethyl)benzyl-7H-pyrrolo[3,2-f]quinazoline]
- IC50 D-6 [1]: 0.1284 ng/mL (≈ 0.246 nM)
- IC50 TM91C235 [2]: 0.4021 ng/mL (≈ 0.771 nM)
- # Mice Alive Day 30/Total ([3]; 80 mg/kg/day): 2/5
- # Mice Alive Day 30/Total ([3]; 40-10 mg/kg/day): 0/5
- # Mice Dead/Day Died ([3]; 40-10 mg/kg/day): deaths in each group
- IC50 RCS [4]: 0.2571 ng/mL (≈ 0.493 nM)
- IC50 W-2 [5]: 0.1284 ng/mL (≈ 0.246 nM)

SMILES: Nc1nc(O)c2c(ccc3c2ccn3Cc2ccccc2C(F)(F)F)n1 [Compound 4, 1-hydroxy-3-amino-7-(2-trifluromethyl)benzyl-7H-pyrrolo [3,2-f]quinazoline]
- IC50 [1]: 7.24 ng/mL (≈ 20.2 nM)
- IC50 [2]: 83.4 ng/mL (≈ 233 nM)
- oral dose range giving 100% cure against P. berghei ([3]; Thompson test): 80 to 180 mg/kg
- # Mice Alive Day 30/Total ([3]; 320 mg/kg/day): 1/5
- # Mice Dead/Day Died ([3]; 40-10 mg/kg/day): deaths in each group
- # Mice Alive Day 30/Total ([3]; 160-80 mg/kg/day): 5/5
- # Mice Dead/Day Died ([3]; 160-80 mg/kg/day): none
- IC50 [5]: 53.9 ng/mL (≈ 150 nM)

SMILES: COc1cc(C)c2c(Oc3cccc(C(F)(F)F)c3)c(OC)cc(NC(C)CCCN)c2n1 (stereo not drawn) [Tefenoquine, reference compound]
- Number of Mice Cured ([6]; 1.25 mg/kg): 2/5
- Number of Mice Cured ([6]; 2.5 mg/kg): 4/5
- Number of Mice Cured ([6]; 5 mg/kg): 5/5
- Number of Mice Cured ([6]; 10 mg/kg): 5/5
